Assay results from ChEMBL document CHEMBL4130433, “Acridone-pyrimidine hybrids- design, synthesis, cytotoxicity studies in resistant and sensitive cancer cells and molecular docking studies” (Eur J Med Chem, 2017).

What was measured:
K562 = experiment: Cytotoxicity against human K562 cells by MTT assay; format: functional, cell-based
MDA-MB-231 [1] = experiment: Antiproliferative activity against human MDA-MB-231 cells after 72 hrs by MTT assay; format: functional, cell-based; conditions: MDA-MB-231, 72 h
HeLa = experiment: Antiproliferative activity against human HeLa cells after 72 hrs by MTT assay; format: functional, cell-based
MCF7 [2] = experiment: Antiproliferative activity against human MCF7 cells after 72 hrs by MTT assay; format: functional, cell-based; conditions: MCF7, 72 h
[3] = Cytotoxicity against African green monkey Vero cells after 72 hrs by MTT assay; format: cell-based; conditions: chlorocebus sabaeus
[4] = biological target: RAC-alpha serine/threonine-protein kinase (Homo sapiens, UniProt P31749); experiment: Inhibition of PH domain lacking AKT1 (unknown origin) using Tamara-labeled GRPRTSSFAEG peptide as substrate after 90 mins by fluorescence polarization IMAP assay
Chain of RAC-alpha serine/threonine-protein kinase (P31749 whole entry, the tested form may be a part): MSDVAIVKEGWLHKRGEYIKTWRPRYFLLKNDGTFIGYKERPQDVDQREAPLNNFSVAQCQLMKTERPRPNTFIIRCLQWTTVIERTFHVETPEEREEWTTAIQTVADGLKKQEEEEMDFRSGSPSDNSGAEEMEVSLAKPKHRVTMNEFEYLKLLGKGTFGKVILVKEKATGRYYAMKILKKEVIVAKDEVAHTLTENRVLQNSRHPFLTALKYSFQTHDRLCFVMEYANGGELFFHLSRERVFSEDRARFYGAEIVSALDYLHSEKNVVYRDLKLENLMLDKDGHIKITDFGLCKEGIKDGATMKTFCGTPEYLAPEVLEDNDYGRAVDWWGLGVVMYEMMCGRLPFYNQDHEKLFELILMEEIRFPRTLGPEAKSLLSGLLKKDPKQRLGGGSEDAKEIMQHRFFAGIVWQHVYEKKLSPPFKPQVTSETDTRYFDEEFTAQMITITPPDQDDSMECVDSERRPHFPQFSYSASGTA

A549 = experiment: cells; conditions: Homo sapiens, A549, 72 h
Description: Antiproliferative activity against human A549 cells after 72 hrs by MTT assay

MDA-MB-231 [5] = experiment: Effect on total AKT protein expression in human MDA-MB-231 cells at antiproliferative IC50 after 48 hrs by Western blot method; format: cell-based; conditions: mda-mb-231, 48 h
MCF7 [6] = experiment: Cytotoxicity against human MCF7 cells by MTT assay; format: functional, cell-based
2008 [7] = experiment: Antiproliferative activity against human 2008 cells after 72 hrs by MTT assay; format: functional, cell-based; conditions: Homo sapiens, 2008, 72 h
2008 [8] = experiment: Antiproliferative activity against resistant human 2008 cells clone 4 harboring MRP1 after 72 hrs by MTT assay; format: functional, cell-based; conditions: Homo sapiens, 2008, 72 h
2008 [9] = experiment: Antiproliferative activity against resistant human 2008 cells clone 6 harboring MRP1 after 72 hrs by MTT assay; format: functional, cell-based; conditions: Homo sapiens, 2008, 72 h
SW1573 [10] = experiment: Antiproliferative activity against human SW1573 cells after 72 hrs by MTT assay; format: functional, cell-based; conditions: SW1573, 72 h
SW1573 [11] = experiment: Antiproliferative activity against resistant human SW1573 2R 120 cells harboring MRP1 after 72 hrs by MTT assay; format: functional, cell-based; conditions: SW1573, 72 h
SW1573 [12] = experiment: Antiproliferative activity against resistant human SW1573 2R 160 cells harboring P-gp after 72 hrs by MTT assay; format: functional, cell-based; conditions: SW1573, 72 h
[13] = Antiproliferative activity against human MCF7/MX cells after 72 hrs by MTT assay; format: functional, cell-based
[14] = Antiproliferative activity against human MCF7/DX cells after 72 hrs by MTT assay; format: functional, cell-based

SMILES	IC50 (MDA-MB-231 [1]) [µM]	IC50 (HeLa) [µM]	IC50 (MCF7 [2]) [µM]	IC50 [4] [µM]	IC50 (A549) [µM]	IC50 (SW1573 [10]) [µM]	IC50 (SW1573 [11]) [µM]	IC50 (SW1573 [12]) [µM]	IC50 (K562) [µM]	CC50 at 72 h [3] [µM]	Activity (MDA-MB-231 [5])	IC50 (MCF7 [6]) [µM]	IC50 2008 [7] [µM]	IC50 2008 [8] [µM]	IC50 2008 [9] [µM]	IC50 [13] [µM]	IC50 [14] [µM]
Cc1cccc2c(=O)c3c(NCc4ccccc4)ccc(C(=O)NCCN(C)C)c3[nH]c12	–	–	–	–	–	–	–	–	0.46	–	–	–	–	–	–	–	–
CCOC(=O)c1c(C)nc(NNC(=O)c2cccc3c(=O)c4ccccc4[nH]c23)nc1-c1ccc(F)cc1	> 100	47.1	> 100	0.176	> 100	–	–	–	–	58.2	–	–	–	–	–	–	–
CCOC(=O)c1c(C)nc(NNC(=O)c2cccc3c(=O)c4ccccc4[nH]c23)nc1-c1ccc(C)cc1	5.6	48.5	11.4	0.98	9.74	–	–	–	–	72.3	–	–	–	–	–	–	–
CCOC(=O)c1c(C)nc(NNC(=O)c2cccc3c(=O)c4ccccc4[nH]c23)nc1-c1cccc(OC)c1	> 100	> 100	> 100	0.251	> 100	–	–	–	–	64.1	–	–	–	–	–	–	–
COc1ccc(Cn2cc(Cn3c4ccccc4c(=O)c4cc(OC)ccc43)nn2)cc1	–	–	–	–	–	–	–	–	–	–	–	11	–	–	–	–	–
COC(=O)c1c(C)nc(NNC(=O)c2cccc3c(=O)c4ccccc4[nH]c23)nc1-c1ccc(F)cc1	56.2	44.5	33	0.313	36.5	75	> 100	62	–	78.2	–	–	23	24	27	30	45
COC(=O)c1c(C)nc(NNC(=O)c2cccc3c(=O)c4ccccc4[nH]c23)nc1-c1ccccc1	47.4	56.7	36.2	0.056	20.4	–	–	–	–	80	–	–	–	–	–	–	–
COc1cccc2c1C(=O)c1c(O)c3c(c(O)c1C2=O)C[C@@](O)(C(=O)CO)C[C@@H]3O[C@H]1C[C@H](N)[C@H](O)[C@H](C)O1 [DOXORUBICIN]	–	–	–	–	10.2	–	–	–	–	–	Non-Toxic	–	–	–	–	–	–
C#Cc1cccc(Nc2ncnc3cc(OCCOC)c(OCCOC)cc23)c1 [ERLOTINIB]	–	–	–	–	21.3	–	–	–	–	–	–	–	–	–	–	–	–

Continued by falling IC50 (A549), values first:

IC50 (MDA-MB-231 [1]) [µM]	IC50 (HeLa) [µM]	IC50 (MCF7 [2]) [µM]	IC50 [4] [µM]	IC50 (A549) [µM]	IC50 (SW1573 [10]) [µM]	IC50 (SW1573 [11]) [µM]	IC50 (SW1573 [12]) [µM]	SMILES	IC50 (K562) [µM]	CC50 at 72 h [3] [µM]	Activity (MDA-MB-231 [5])	IC50 (MCF7 [6]) [µM]	IC50 2008 [7] [µM]	IC50 2008 [8] [µM]	IC50 2008 [9] [µM]	IC50 [13] [µM]	IC50 [14] [µM]
74.5	37.4	52.1	0.64	44.8	–	–	–	COC(=O)c1c(C)nc(NNC(=O)c2cccc3c(=O)c4ccccc4[nH]c23)nc1-c1ccc(OC)cc1	–	86.2	–	–	–	–	–	–	–
47.3	57.5	26	0.115	41.7	45	38	62	CCOC(=O)c1c(C)nc(NNC(=O)c2cccc3c(=O)c4ccccc4[nH]c23)nc1-c1ccc(OC)c(OC)c1	–	84.3	–	–	15	25	19	38	30
23.7	76.4	45.2	0.738	40.5	–	–	–	COC(=O)c1c(C)nc(NNC(=O)c2cccc3c(=O)c4ccccc4[nH]c23)nc1-c1ccc(C)cc1	–	64.2	–	–	–	–	–	–	–
58.3	72.6	32	0.482	27.2	5	> 100	10	COC(=O)c1c(C)nc(NNC(=O)c2cccc3c(=O)c4ccccc4[nH]c23)nc1-c1cccc(OC)c1	–	95.1	–	–	34	74	72	30	78
41.6	67.3	25.7	0.432	20.6	–	–	–	COC(=O)c1c(C)nc(NNC(=O)c2cccc3c(=O)c4ccccc4[nH]c23)nc1-c1ccccc1F	–	76.1	–	–	–	–	–	–	–
19.6	45.8	15.6	0.0047	8.49	–	–	–	CCOC(=O)c1c(C)nc(NNC(=O)c2cccc3c(=O)c4ccccc4[nH]c23)nc1-c1ccccc1	–	92.8	Non-Toxic	–	–	–	–	–	–
8.61	39.1	4.32	0.012	3.9	–	–	–	CCOC(=O)c1c(C)nc(NNC(=O)c2cccc3c(=O)c4ccccc4[nH]c23)nc1CC(C)C	–	78.2	Non-Toxic	–	–	–	–	–	–
7.12	74.5	10.5	0.00172	3.26	–	–	–	CCOC(=O)c1c(C)nc(NNC(=O)c2cccc3c(=O)c4ccccc4[nH]c23)nc1-c1ccc(OC)cc1	–	82.3	Non-Toxic	–	–	–	–	–	–
6.28	52.6	7.3	0.0082	3.12	–	–	–	CCOC(=O)c1c(C)nc(NNC(=O)c2cccc3c(=O)c4ccccc4[nH]c23)nc1-c1ccccc1F	–	61.3	Non-Toxic	–	–	–	–	–	–
